Results from US20230295130A1, “COMPOUND USEFUL AS CDK7 KINASE INHIBITOR AND USE THEREOF” (TYK MEDICINES, INC., priority 2020, published 2023).

Columns and labels:
[1] = tested on: breast cancer cells MDA-MB 231; assay: Cell anti-proliferation experiment, MTT (Table 2); type: cell-based; settings: Homo sapiens, MDA-MB-231, 72 h, incubate 3 days
Source text: (§1) Human breast cancer cells MDA-MB 231, MDA-MB453, ovarian cancer cells OVCAR3 and A2780, colorectal cancer cells HCT-116 and WiDr, and lung cancer cell Calu-6 were purchased from BNCC. DMEM medium (Bio-Channel), DMSO (dimethyl sulfoxide), MTT (thiazole blue), 0.25% EDTA-Tripsin (pancreatin digestive juice), 1×PBS (phosphate buffer, PH7.2), 96-well plate (Corning), fetal bovine serum (FBS), 10,000 U/mL penicillin-G/streptomycin, high-speed freezing centrifuge (EPPENDORF 5810R), enzyme-linked immunosorbent assay (Tecan Spark).
(§2) 1. Cell Plating • A) Tumor cells were cultured to 80-90% density in DMEM (high sugar, containing 10% FBS and 100 U/mL penicillin-G/streptomycin) at 37° C., 5% CO2 and saturated humidity. • B) The culture medium was removed from the 10 cm culture dish. • C) Cells were washed with 10 ml 1×PBS. • D) 4 ml of 0.25% EDTA-Tripsin was added to an incubator to digest pancreatin for 5 minutes at 37° C. and 5% CO2, transferred to a 15 ml centrifuge tube, centrifuged for 5 minutes at 200 g, and supernatant was discarded to obtain cell precipitation. • E) The cell precipitation was resuspended with 4 ml DMEM medium, counted and adjusted to 50,000 cells/ml. • F) Cell suspension was added to a 96-well plate with a volume of 100 μL per well and cultured overnight in a 5% CO2 incubator at 37° C.
(§3) Compound Dilution • A) Preparing the tested compound gradient dilution solution: the tested compounds were prepared into 10 mM and 1 mM storage solution respectively. Firstly, 1 μl and 0.5 μl of 10 mM storage solution were dissolved in 1 ml of DMSO-free culture solution, respectively, to obtain diluted compounds with concentrations of 10 and 5 μM. Then, 1.5 μl of 1 mM storage solution was dissolved in 1.5 ml of DMSO-free culture solution to obtain a dilution compound with a concentration of 1 μM, and then diluted with a 3-fold continuous gradient with […] culture solution for a total of 7 concentrations. The concentrations of all 10 diluted compounds mentioned above were as follows: • 10 μM, 5 μM, 1 μM, 333.33 nM, 111.11 nM, 37.03 nM, 12.35 nM, 4.15 nM, 1.37 nM, 0.46 nM • B) After full mixing, 100 μL of culture compound solution was taken to replace the culture solution in the cell culture plate, with 4 duplicated wells at each concentration; • C) The cells were transferred to incubator to incubate for 3 days.
(§4) 3. MTT Detection • A) The cell culture plate was taken out and added with 5 mg/ml MTT 10 μL in the biosafety cabinet; • B) The cell culture plate was put back into the incubator and continued to incubate for 3 hours; • C) The cell culture plate was taken out to remove the culture solution, 100 μL isopropanol (containing 0.4 mM HCl, 0.1% NP-40) was added, shaking at room temperature for 30 minutes; • D) The absorbance value was measured at 570 nm on TECAN enzyme linked immunosorbent assay.

lung cancer cell Calu-6 = assay: Cell anti-proliferation experiment, MTT (Table 2); type: cell-based; settings: Homo sapiens, Calu-6, 72 h, incubate 3 days
Source text: as §1, §2, §3, §4

[2] = tested on: colorectal cancer cells HCT-116; assay: Cell anti-proliferation experiment, MTT (Table 2); type: cell-based; settings: Homo sapiens, HCT-116, 72 h, incubate 3 days
Source text: as §1, §2, §3, §4

[3] = tested on: breast cancer cells MDA-MB453; assay: Cell anti-proliferation experiment, MTT (Table 2); type: cell-based; settings: Homo sapiens, MDA-MB-453, 72 h, incubate 3 days
Source text: as §1, §2, §3, §4

[4] = tested on: ovarian cancer cells OVCAR3; assay: Cell anti-proliferation experiment, MTT (Table 2); type: cell-based; settings: Homo sapiens, OVCAR-3, 72 h, incubate 3 days
Source text: as §1, §2, §3, §4

[5] = tested on: colorectal cancer cells WiDr; assay: Cell anti-proliferation experiment, MTT (Table 2); type: cell-based, human; settings: incubate 3 days
Source text: as §1, §2, §3, §4

[6] = tested on: ovarian cancer cells A2780; assay: Cell anti-proliferation experiment, MTT (Table 2); type: cell-based, human; settings: incubate 3 days
Source text: as §1, §2, §3, §4

[7] = target: T1, CDK7/Cyclin H/MAT1 kinase (Homo sapiens (Human), UniProt P50613); assay: Enzyme activity test, mobility shift assay (Table 3); type: biochemical; settings: 2 mM ATP, pre-incubated 0 and 60 minutes
T1 sequence (P50613 whole entry): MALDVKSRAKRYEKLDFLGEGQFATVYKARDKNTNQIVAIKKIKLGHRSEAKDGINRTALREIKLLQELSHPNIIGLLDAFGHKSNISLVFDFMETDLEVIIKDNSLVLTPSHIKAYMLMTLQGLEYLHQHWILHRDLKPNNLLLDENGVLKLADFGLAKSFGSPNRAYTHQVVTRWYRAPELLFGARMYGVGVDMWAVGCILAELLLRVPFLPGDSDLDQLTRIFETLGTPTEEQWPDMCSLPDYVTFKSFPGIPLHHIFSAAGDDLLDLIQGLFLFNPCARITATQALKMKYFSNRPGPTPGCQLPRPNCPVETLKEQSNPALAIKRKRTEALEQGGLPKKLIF
T1 sequence (P51946 whole entry partner): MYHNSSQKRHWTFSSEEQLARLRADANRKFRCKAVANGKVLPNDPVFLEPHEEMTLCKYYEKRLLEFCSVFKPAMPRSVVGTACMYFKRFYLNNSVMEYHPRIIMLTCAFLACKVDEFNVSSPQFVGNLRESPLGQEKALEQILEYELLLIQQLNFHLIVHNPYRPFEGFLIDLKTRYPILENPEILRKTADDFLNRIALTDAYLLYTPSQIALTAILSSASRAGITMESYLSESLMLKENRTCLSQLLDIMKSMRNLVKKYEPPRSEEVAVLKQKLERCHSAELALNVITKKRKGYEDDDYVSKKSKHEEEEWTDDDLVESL
T1 sequence (P51948 whole entry partner): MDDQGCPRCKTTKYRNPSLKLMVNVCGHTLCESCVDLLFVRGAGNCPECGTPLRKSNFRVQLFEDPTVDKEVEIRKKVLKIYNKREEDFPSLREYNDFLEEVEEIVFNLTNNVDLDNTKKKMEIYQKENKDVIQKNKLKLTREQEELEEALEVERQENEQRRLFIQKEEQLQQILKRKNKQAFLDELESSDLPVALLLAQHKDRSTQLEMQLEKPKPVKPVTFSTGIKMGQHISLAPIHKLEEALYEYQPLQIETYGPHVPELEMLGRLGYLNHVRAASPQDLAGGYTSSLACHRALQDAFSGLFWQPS
Experimental: IC50 values of the compounds for CDK7 kinase were detected in Wuxi Biortus Biosciences Co. Ltd.
The compound powder was dissolved in 100% DMSO to prepare a 10 mM storage solution. The storage solution was further diluted to 0.5 mM as the initial concentration, and continuously diluted 3 times to obtain 10 compound solutions with different concentrations. The compound and enzyme were pre-incubated for 0 minutes and 60 minutes, respectively, using duplicate detection.
was used as a positive control, using Mobility shift say method, to detect CDK kinase (such as CDK7, CDK9, CDK12 and CDK2) activity of the compound.

[8] = tested on: breast cancer cells MDA-MB 231; assay: Cell anti-proliferation experiment, MTT (Table 4); type: cell-based, human; settings: Homo sapiens, MDA-MB-231, 72 h, incubate 3 days
Source text: as §1, with “OVCAR3,” for “OVCAR3 and A2780,”, “and” for “and WiDr, and”, “cells NCI-H209” for “cell Calu-6”
as §2, with “•” for “1. Cell Plating •”
(§5) • A) Preparing the tested compound gradient dilution solution: TY 2600 1 mM, TY 2601 1 mM, TY-2648a 1 mM, TY-2648b 1 mM and TY-2650 1 mM storage solutions were prepared. Then 1.5 μl of storage solution was dissolved in 1.5 ml of DMSO-free culture solution, and then performed 3-fold continuous gradient dilution with 0.1% DMSO culture solution for a total of 9 concentrations. The concentrations of the diluted compound were as follows: • 333.33 nM, 111.11 nM, 37.03 nM, 12.35 nM, 4.15 nM, 1.37 nM, 0.46 nM, 0.15 nM • B) After full mixing, 100 μL of culture compound solution was taken to replace the culture solution in the cell culture plate, with 4 duplicated wells at each concentration; • C) The cells were transferred to incubator to incubate for 3 days.
as §4, with “•” for “3. MTT Detection •”

[9] = tested on: colorectal cancer cells HCT-116; assay: Cell anti-proliferation experiment, MTT (Table 4); type: cell-based, human; settings: Homo sapiens, HCT-116, 72 h, incubate 3 days
Source text: as §1, with “OVCAR3,” for “OVCAR3 and A2780,”, “and” for “and WiDr, and”, “cells NCI-H209” for “cell Calu-6”
as §2, with “•” for “1. Cell Plating •”
as §5
as §4, with “•” for “3. MTT Detection •”

[10] = tested on: breast cancer cells MDA-MB453; assay: Cell anti-proliferation experiment, MTT (Table 4); type: cell-based, human; settings: Homo sapiens, MDA-MB-453, 72 h, incubate 3 days
Source text: as §1, with “OVCAR3,” for “OVCAR3 and A2780,”, “and” for “and WiDr, and”, “cells NCI-H209” for “cell Calu-6”
as §2, with “•” for “1. Cell Plating •”
as §5
as §4, with “•” for “3. MTT Detection •”

[11] = tested on: ovarian cancer cells OVCAR3; assay: Cell anti-proliferation experiment, MTT (Table 4); type: cell-based, human; settings: Homo sapiens, OVCAR-3, 72 h, incubate 3 days
Source text: as §1, with “OVCAR3,” for “OVCAR3 and A2780,”, “and” for “and WiDr, and”, “cells NCI-H209” for “cell Calu-6”
as §2, with “•” for “1. Cell Plating •”
as §5
as §4, with “•” for “3. MTT Detection •”

[12] = target: T1, CDK7/Cyclin H/MAT1 kinase; assay: Enzyme activity test, mobility shift assay (Table 1); type: biochemical; settings: 2 mM ATP; pre-incubated 0 and 60 minutes
[13] = target: CDK12 (aa686-1082)/Cyclin K (Homo sapiens (Human), UniProt Q9NYV4); assay: as above; type: biochemical; settings: 2 mM ATP; read-out: CDK12 kinase IC50
Chain of CDK12 (aa686-1082)/Cyclin K (Q9NYV4 686-1082): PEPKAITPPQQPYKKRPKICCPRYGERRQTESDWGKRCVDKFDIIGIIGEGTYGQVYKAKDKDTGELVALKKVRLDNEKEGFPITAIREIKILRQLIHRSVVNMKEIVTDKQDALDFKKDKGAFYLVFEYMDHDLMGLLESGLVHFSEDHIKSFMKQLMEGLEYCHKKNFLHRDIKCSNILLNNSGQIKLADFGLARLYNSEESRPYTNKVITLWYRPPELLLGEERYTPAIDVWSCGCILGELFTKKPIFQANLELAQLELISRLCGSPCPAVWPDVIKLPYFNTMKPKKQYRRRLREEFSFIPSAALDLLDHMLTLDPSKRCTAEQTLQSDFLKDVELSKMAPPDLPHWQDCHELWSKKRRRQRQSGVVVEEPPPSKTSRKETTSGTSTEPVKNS
Chain of CDK12 (aa686-1082)/Cyclin K (O75909 whole entry partner, the tested form may be a part): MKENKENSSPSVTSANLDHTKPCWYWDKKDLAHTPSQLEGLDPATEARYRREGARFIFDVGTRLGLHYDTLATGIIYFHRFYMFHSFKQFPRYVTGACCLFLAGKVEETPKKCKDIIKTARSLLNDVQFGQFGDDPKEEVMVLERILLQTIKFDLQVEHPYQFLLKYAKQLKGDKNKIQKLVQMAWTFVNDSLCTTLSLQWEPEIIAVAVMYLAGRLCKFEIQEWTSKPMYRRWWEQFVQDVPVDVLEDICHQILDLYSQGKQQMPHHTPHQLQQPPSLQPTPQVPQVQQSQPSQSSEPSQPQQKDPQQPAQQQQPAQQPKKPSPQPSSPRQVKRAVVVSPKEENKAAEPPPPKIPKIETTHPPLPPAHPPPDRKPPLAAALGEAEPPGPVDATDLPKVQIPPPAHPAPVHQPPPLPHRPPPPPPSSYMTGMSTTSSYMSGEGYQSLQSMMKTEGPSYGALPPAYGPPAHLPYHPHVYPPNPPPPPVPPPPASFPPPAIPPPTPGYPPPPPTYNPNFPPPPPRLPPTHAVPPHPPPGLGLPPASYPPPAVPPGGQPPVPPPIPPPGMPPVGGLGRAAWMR
In short: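 Mobility shift kinase assay on CDK9/Cyclin T1 and CDK12 (aa686-1082)/Cyclin K. Ten-point 3-fold dilution series started from a 0.5 mM intermediate solution in DMSO, with compound–enzyme pre-incubation of 0 or 60 min, in duplicate. Staurosporine served as positive control.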

CDK9/Cyclin Tl = CDK9/Cyclin Tl (Homo sapiens (Human), UniProt P50750); assay: as above; type: biochemical; settings: 2 mM ATP; read-out: CDK9 kinase IC50
Chain of CDK9/Cyclin Tl (P50750 whole entry): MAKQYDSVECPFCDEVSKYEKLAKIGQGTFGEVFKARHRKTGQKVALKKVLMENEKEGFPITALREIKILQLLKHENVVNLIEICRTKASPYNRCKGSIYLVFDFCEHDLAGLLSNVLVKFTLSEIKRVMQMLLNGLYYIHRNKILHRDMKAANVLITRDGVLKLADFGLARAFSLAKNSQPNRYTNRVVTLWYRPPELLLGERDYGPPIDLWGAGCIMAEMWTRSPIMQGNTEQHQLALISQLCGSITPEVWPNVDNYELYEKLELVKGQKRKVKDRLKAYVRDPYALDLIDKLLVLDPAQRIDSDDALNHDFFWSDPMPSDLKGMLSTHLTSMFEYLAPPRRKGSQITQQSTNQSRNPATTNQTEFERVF
Chain of CDK9/Cyclin Tl (O60563 whole entry partner): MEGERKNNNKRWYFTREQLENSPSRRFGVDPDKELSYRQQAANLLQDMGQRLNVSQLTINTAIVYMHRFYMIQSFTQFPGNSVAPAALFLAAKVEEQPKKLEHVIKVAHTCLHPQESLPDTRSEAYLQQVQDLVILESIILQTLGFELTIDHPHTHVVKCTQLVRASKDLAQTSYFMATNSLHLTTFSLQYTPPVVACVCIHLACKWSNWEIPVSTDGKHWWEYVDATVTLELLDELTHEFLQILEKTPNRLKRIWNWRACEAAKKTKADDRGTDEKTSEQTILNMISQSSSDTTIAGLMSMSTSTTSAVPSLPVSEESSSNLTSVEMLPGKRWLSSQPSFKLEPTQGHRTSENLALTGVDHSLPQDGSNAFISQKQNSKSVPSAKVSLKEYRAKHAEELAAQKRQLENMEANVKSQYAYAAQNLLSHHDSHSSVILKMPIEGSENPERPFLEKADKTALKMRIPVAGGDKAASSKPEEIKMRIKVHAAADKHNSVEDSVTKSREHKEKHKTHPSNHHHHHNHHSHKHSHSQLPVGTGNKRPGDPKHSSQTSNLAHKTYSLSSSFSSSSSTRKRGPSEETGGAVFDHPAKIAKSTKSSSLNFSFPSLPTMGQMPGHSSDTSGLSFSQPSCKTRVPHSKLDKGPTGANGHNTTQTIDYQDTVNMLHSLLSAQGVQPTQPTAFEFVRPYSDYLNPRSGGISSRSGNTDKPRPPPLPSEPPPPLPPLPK
In short: (§6)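 Human CDK9/Cyclin T1 and CDK2/Cyclin E1 activity measured by mobility shift assay. Compounds tested as 10-point, 3-fold dilution series starting at 0.5 mM (diluted from 10 mM DMSO stock), in duplicate, with 0 min or 60 min compound–enzyme pre-incubation.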

CDK2/Cyclin El = CDK2/Cyclin El (Homo sapiens (Human), UniProt P24941); assay: as above; type: biochemical; settings: 2 mM ATP; read-out: CDK2 kinase IC50
In short: as §6

| Compound | IC50 [1] | IC50 (lung cancer cell Calu-6) | IC50 [2] | IC50 [3] | IC50 [4] | IC50 ([5]; Homo sapiens, WiDr, 72 h) | IC50 ([6]; Homo sapiens, A2780, 72 h) | IC50 [7] | IC50 [8] | IC50 [9] | IC50 [10] | IC50 [11] | IC50 [12] | IC50 [13] | IC50 (CDK9/Cyclin Tl) | IC50 (CDK2/Cyclin El) | IC50 [5] | IC50 [6] |
| --- | --- | --- | --- | --- | --- | --- | --- | --- | --- | --- | --- | --- | --- | --- | --- | --- | --- | --- |
| CC1(C)CC[C@H](Nc2ncc(C(F)(F)F)c(-c3c[nH]c4c(P(C)(C)=O)c(C#N)ccc34)n2)CN1 [Compound 101, reference compound] | 1660 nM | 207 nM | 88.8 nM | 112 nM | 246 nM | 11.2 nM | 8.76 nM | – | – | – | – | – | – | – | – | – | – | – |
| CC1(C)CC[C@H](Nc2ncc(C(F)(F)F)c(-c3c[nH]c4c(P5(=O)CCCC5)nccc34)n2)CN1 [Example 14] | – | – | – | – | – | – | – | < 10 nM | 10 to 500 nM | 10 to 500 nM | 10 to 500 nM | 10 to 500 nM | – | – | – | – | – | – |
| C=C(C)c1c(NC(=O)OC)ccc2c(-c3nc(N[C@H]4CCCNC4)ncc3C(F)(F)F)c[nH]c12 [Example T-70] | – | – | – | – | – | – | – | – | – | – | – | – | < 50 nM | > 500 nM | > 500 nM | > 500 nM | 45.5 nM | 4.47 nM |

Continued, in another order:

| IC50 [1] | IC50 (lung cancer cell Calu-6) | IC50 [2] | IC50 [3] | IC50 [4] | IC50 ([5]; Homo sapiens, WiDr, 72 h) | IC50 ([6]; Homo sapiens, A2780, 72 h) | IC50 [7] | IC50 [8] | IC50 [9] | IC50 [10] | IC50 [11] | IC50 [12] | IC50 [13] | IC50 (CDK9/Cyclin Tl) | IC50 (CDK2/Cyclin El) | Compound | IC50 [5] | IC50 [6] |
| --- | --- | --- | --- | --- | --- | --- | --- | --- | --- | --- | --- | --- | --- | --- | --- | --- | --- | --- |
| 181 nM | 110 nM | 137 nM | 77.9 nM | 98.4 nM | 22.2 nM | 12.3 nM | – | – | – | – | – | < 50 nM | > 500 nM | > 500 nM | > 500 nM | CCOC(=O)Nc1ccc2c(-c3nc(N[C@H]4CCCNC4)ncc3C(F)(F)F)c[nH]c2c1Br [Example T-42] | – | – |
| – | – | – | – | – | 26.8 nM | 4.76 nM | – | – | – | – | – | < 50 nM | > 500 nM | > 500 nM | > 500 nM | COC(=O)Nc1ccc2c(-c3nc(N[C@H]4CCCNC4)ncc3C(F)(F)F)c[nH]c2c1C1CC1 [Example T-17] | – | – |
